Read-outs that look alike come from different tables or passages of the source.
Tests used:
PBMCs = test: Treatment of PBMCs from healthy donors with USP10-targeting inhibitors; format: cell-based, human
Text: Nomo-1, P31-FUJ, and NB4 were obtained from Dr. Gary Gilliland. MV4, 11 cells were obtained from Dr. Anthony Letai. Hel, K562, THP, U937, TF-1 and K052 cells were purchased from the American Type Culture Collection (ATCC) (Manassas, Va., USA). […] Cell lines were submitted for cell line authentication and were authenticated within 6 months of manuscript preparation through cell line short tandem repeat (STR) profiling (DDC Medical, Fairfield, Ohio and Molecular Diagnostics Laboratory, Dana Farber Cancer Institute). […] PBMCs were generously provided by Dr. Steven Treon and Dr. Guang Yang.
(§1) The CellTiter-Glo® assay (Promega, Madison, Wis.) was used for proliferation studies and carried out according to manufacturer instructions. Cell viability is reported as percentage of control (untreated) cells, and error bars represent the standard error of the mean for each data point.

[1] = test system: AML primagraft (D835Y+, FLT3-ITD+) cells; test: Treatment of mutant FLT3-expressing AML primagraft cells ex vivo; format: cell-based, human; settings: read-out: IC50 (+/−S.D.) AML primagraft (D835Y+, FLT3-ITD+)
Protocol: All animal studies were performed according to protocols approved by the Dana-Farber Cancer Institute's Institutional Animal Care and Use Committee. […] Mice were sacrificed on day 21 of treatment. Bone marrow was flushed from mouse femurs, and spleens and livers were dissected and preserved first in formalin, followed 24 hours later by preservation in 70% ethanol. […] All AML primagraft samples used in the studies described herein were obtained through the Public Repository of Xenografts (proxe.org).
as §1

Ba/F3-FLT3-ITD cells = test: Immunoblot of FLT3 / Beclin-1 in Ba/F3-FLT3-ITD cells; format: cell-based, murine; settings: for FLT3 protein levels: immunoblot, Ba/F3-FLT3-ITD cells
Text: (§2) The following antibodies were purchased from Cell Signaling Technology (Danvers, Mass.): total AKT (rabbit, #9272) and total p44/42 MAPK (Erk1/2) (3A7) (mouse, #9107) were used at 1:1000 dilution. Anti-GAPDH (D16H-11) XP (R) (rabbit mAb, #5174) was used at 1:1000 dilution. Beclin-1 (rabbit, #3738) was used at 1:1000. USP10 (D7A5) (rabbit, #8501) was used at 1:1000 dilution. P53 (rabbit, #9282) was used at 1:1000 dilution. β-tubulin (rabbit, #2146s) was used 1:1000.
(§3) FLT3/Flk-2 (C-20) (sc-479) and Ub (P4D1) (mouse, sc-8017) were purchased from Santa Cruz Biotechnology, Inc. (Dallas, Tex.) and used at 1:1000 dilution for immunoblotting. Anti-pTyr (mouse, clone 4G10) was purchased from Upstate Biotechnology (Lake Placid, N.Y.) and was used at 1:1000 dilution. Anti-HAUSP/USP7 antibody (rabbit, ab4080) and anti-ubiquitin antibody (rabbit, ab7780) were purchased from Abcam (Cambridge, Mass.) and used at 1:1000 dilution.
(§4) Protein lysate preparation, immunoblotting, and immunoprecipitation were carried out as previously described in Weisberg et al. (2002) Cancer Cell 1:433-443.

Ba/F3-D835Y cells [2] = test: Immunoblot of FLT3 in Ba/F3-D835Y cells; format: cell-based, murine
Text: as §3, §4

MOLM14 cells = test: Immunoblot of FLT3, Beclin-1, AKT, ERK1/ERK2 in MOLM14 cells; format: cell-based, human
Text: as §2, §3, §4

USP10 = USP10 target engagement in cells, labeling with HA-Ub-VS; format: cell-based; settings: lysates from live treated cells
Protocol: Cells were harvested, washed with PBS, and lysed in 1% NP-40, 10% glycerol, 2% sodium orthovanadate, and HALT protease inhibitor cocktail (ThermoFisher). Lysate was diluted to 50 ug in 30 uL lysis buffer with 1% DTT and incubated on ice for 15 minutes. 0.25 ug HA-Ub-VS was added, and the sample was gently rocked at room temperature for 30 minutes, then denatured with LDS sample buffer.

[3] = test system: mutant FLT3-expressing cells; test: Dynamic BH3 profiling (mitochondrial priming); format: cell-based, human; settings: cytochrome c release in response to Bim peptide, 14 h; compared to wt or null FLT3-expressing cells
Protocol: To determine drug-induced changes in mitochondrial priming, dynamic BH3 profiling was performed as previously described in Montero et al. (2015) Cell 160:977-989 and Pan et al. (2014) Cancer Discov. 4:362-375. Briefly, 0.4×10^6 cells/well were exposed to drug treatment for 14 hours. At the end of incubation time, cells were washed in PBS, pelleted at 500×g for 5 min, and resuspended in MEB buffer. Fifteen μl of cell suspension was added to each well of 384 well plate containing 15 μl of MEB buffer containing 20 μg/mL digitonin and BH3 peptides at twice their final concentration, and the mixture was incubated for 60 min at 26° C. to allow mitochondrial depolarization. Peptide exposure was then terminated by adding 10 μl 4% formaldehyde in PBS for 15 min, followed by neutralization with N2 buffer (1.7M Tris, 1.25M glycine, pH 9.1) for 10 min. In order to determine cytochrome C levels, anti-cytochrome C clone 6H2.B4 conjugated to Alexa Fluor® 647 (BD Bioscience) was diluted 1:50 in 10× staining buffer (10% BSA, 2% Tween-20 and 0.02% sodium azide in PBS) and 10 μl of this antibody-containing buffer was added to each well for a final dilution of 1:400. Cells were stained overnight at 4° C. in dark and data were acquired on a BD LSRFortessa™ analyzer (BD Biosciences). Priming change (Δ) was calculated by comparing cytochrome C abundance in treated cells to that of DMSO-treated control cells.

MOLM13 and MOLM14 cells = test: p53 levels in AML cell lines (immunoblot); format: cell-based, human
Text: as §2, §4

[4] = test system: wt FLT3-expressing leukemia cell lines; test: FLT3 protein in wt FLT3-expressing leukemia cell lines (immunoblot); format: cell-based, human; settings: approximately 23 hours of treatment
Protocol: as §4

Ba/F3-D835Y cells [5] = test system: Ba/F3-D835Y cells
USP7 = USP7 (Homo sapiens, UniProt Q93009); test: USP7 IC50 of HBX19818 analogs (Table 9); format: biochemical; settings: read-out: USP7 IC50 +/− SEM
[6] = 24 hr assay, PBMC#1, read-out: IC50 (+/−S.D.) PBMC#1
[7] = 24 hr assay, PBMC#2, read-out: IC50 (+/−S.D.) PBMC#2
[8] = 72 hr assay, PBMC#1, read-out: IC50 (+/−S.D.) PBMC#1
[9] = 72 hr assay, PBMC#2, read-out: IC50 (+/−S.D.) PBMC#2

Sequence of USP7 (Q93009 whole entry): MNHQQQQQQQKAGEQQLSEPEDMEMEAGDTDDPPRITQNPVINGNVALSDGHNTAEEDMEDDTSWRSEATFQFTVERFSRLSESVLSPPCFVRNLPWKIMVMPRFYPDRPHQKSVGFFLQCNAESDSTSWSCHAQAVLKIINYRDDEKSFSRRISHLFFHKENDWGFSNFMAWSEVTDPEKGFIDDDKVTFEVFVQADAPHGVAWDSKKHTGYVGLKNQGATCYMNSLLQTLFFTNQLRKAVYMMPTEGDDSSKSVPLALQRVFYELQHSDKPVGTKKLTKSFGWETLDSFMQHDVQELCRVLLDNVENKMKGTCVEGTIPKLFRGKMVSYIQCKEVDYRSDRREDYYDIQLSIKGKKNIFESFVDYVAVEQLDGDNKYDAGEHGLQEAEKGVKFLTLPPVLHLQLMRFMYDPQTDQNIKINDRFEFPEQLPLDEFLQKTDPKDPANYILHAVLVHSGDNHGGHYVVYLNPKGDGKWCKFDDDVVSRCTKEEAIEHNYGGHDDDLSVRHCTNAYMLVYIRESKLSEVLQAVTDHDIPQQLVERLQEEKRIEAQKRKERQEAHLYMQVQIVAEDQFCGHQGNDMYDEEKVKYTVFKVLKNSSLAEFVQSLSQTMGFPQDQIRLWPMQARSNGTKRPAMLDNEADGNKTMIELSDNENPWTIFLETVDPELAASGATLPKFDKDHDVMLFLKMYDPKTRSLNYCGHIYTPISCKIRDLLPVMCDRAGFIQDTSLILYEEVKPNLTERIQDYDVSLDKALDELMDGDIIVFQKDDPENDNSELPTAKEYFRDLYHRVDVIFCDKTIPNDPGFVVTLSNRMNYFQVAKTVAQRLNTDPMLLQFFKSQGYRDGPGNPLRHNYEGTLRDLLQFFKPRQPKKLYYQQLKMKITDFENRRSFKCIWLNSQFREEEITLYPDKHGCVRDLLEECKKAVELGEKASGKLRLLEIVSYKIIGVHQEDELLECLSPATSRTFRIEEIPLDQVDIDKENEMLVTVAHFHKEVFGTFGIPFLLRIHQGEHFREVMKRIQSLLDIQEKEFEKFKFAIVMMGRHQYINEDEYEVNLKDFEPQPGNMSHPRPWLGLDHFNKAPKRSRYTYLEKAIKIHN

Compound | FLT3 protein levels (Ba/F3-FLT3-ITD cells) | Mitochondrial priming for apoptosis [3] | IC50 (PBMCs; [6]) [µM] | IC50 (PBMCs; [7]) [µM] | IC50 (PBMCs; [8]) [µM] | IC50 (PBMCs; [9]) [µM] | IC50 ([1]; 24 hr assay) [µM] | IC50 ([1]; 72 hr assay) [µM] | IC50 (USP7) [µM] | other results
CN(CCCNC(=O)c1ccc2nc3c(c(Cl)c2c1)CCCC3)Cc1ccccc1 [HBX19818, reference compound] | loss of FLT3 protein | increased priming |  |  |  |  |  |  |  | IC50 (PBMCs; Homo sapiens, PBMC, 24 h, read-out: IC50 (+/−S.D.) PBMC#1): 25.5 µM; IC50 (PBMCs; Homo sapiens, PBMC, 24 h, read-out: IC50 (+/−S.D.) PBMC#2): 24.1 µM; IC50 (PBMCs; Homo sapiens, PBMC, 72 h, read-out: IC50 (+/−S.D.) PBMC#1): 12.4 µM; IC50 (PBMCs; Homo sapiens, PBMC, 72 h, read-out: IC50 (+/−S.D.) PBMC#2): 7.3 µM; IC50 ([1]; Homo sapiens, 24 hr assay): 9.8 µM; IC50 ([1]; Homo sapiens, 72 hr assay): 1.9 µM; Protein levels of Beclin-1 and FLT3 (Ba/F3-FLT3-ITD cells; 20 μM): strongly decreased; FLT3 protein levels (Ba/F3-D835Y cells [2]): more modest loss of FLT3 protein; Protein levels of Beclin-1 and FLT3 (MOLM14 cells; 20 μM): strongly decreased; Expression of AKT and ERK1/ERK2 downstream of FLT3 (MOLM14 cells; approximately 23 hours of treatment): unchanged; Inhibitor concentration blocking USP10 labeling by HA-Ub-VS (USP10): low micromolar range; p53 levels (MOLM13 and MOLM14 cells): did not result in a decrease of p53 levels; FLT3 protein [4]: little to no impact; Proliferation EC50 (Ba/F3-D835Y cells [5]): single digit micromolar range
O=C(NCCCN1CCN(Cc2ccccc2)CC1)c1ccc2nc3c(c(Cl)c2c1)CCCC3 [C598-0563] | induce loss of FLT3 at similar concentrations |  | 22.9 | 44.4 | 15.6 | 7.9 | 12.2 | 2.8 | 50 | 
CCN(CCCNC(=O)c1ccc2nc3c(c(Cl)c2c1)CCC3)Cc1ccccc1 [C673-0105] |  | more strongly | 17.2 | 17.4 | 10 | 7.3 | 8.5 | 3.1 | > 100 | 
CCCN(CCC)CCCNC(=O)c1ccc2c(Cl)c3c(nc2c1)CCCC3 [C598-0466] | induces FLT3 degradation at lower concentrations |  | 10.5 | 10.5 | 4.8 | 3.1 | 4.1 | 0.6 | 3.6 | 

Source: patent publication US11136409B2, “Compositions and methods for identification, assessment, prevention, and treatment of AML using USP10 biomarkers and modulators” (Dana-Farber Cancer Institute, Inc., priority 2016, dated 2021)
